Experimental data reported in patent US8809541B2, “Heterocyclic compound, and composition for treating inflammatory diseases using same” (Neopharm Co., Ltd., priority 2010, dated 2014).

Experiments:
[1] = test system: nude mice (SKH-1); assay: Oxazolone chronic dermatitis animal model; assay type: in vivo; conditions: compared with the control group
Protocol: Efficacy of a selected material was evaluated by using a chronic dermatitis animal model. An animal model of which chronic dermatitis was induced by continuously applying oxaozolone, which is a kind of hapten, to the nude mice was used. […] In order to construct a chronic dermatitis animal model, 5% of oxazolone was applied to 6-week nude mice (SKH-1) and thus sensitized, and 0.1% of oxazolone was applied once every two days from a week after, resulting in inducing dermatitis symptom. The sample was applied to an animal after induction at an interval of once a day for three days, and various dermal functions and skin thickness change were observed. Finally, skin biopsy was conducted and histological observation was conducted.
As a positive control group used in the experiment, 0.05% of desonide, which is relatively low potency steroid, was used, and the transepidermal water loss, the moisture content in the stratum corneum, and skin thickness change were observed.

[2] = molecular target: T1, PAR-2 (Homo sapiens, UniProt P55085); assay: Calcium immobilization assay (Calcium-4 assay kit); assay type: cell-based; parameters: expressed in transfected cells; conditions: HCT-15 PAR-2-overexpressed cell line, activating peptide (AP) as activator
T1 sequence (P55085 26-397): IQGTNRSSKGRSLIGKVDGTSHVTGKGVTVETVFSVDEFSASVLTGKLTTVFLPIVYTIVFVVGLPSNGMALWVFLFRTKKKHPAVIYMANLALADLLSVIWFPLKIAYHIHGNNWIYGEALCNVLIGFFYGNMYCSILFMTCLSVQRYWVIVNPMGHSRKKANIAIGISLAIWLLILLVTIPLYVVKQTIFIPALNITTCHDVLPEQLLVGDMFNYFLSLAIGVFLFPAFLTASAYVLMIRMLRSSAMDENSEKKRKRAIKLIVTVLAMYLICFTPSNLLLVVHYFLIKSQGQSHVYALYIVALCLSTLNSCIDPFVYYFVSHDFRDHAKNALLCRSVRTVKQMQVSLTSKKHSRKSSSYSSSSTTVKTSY
Protocol: In order to evaluate PAR-2 inhibitory activity of the synthesized material, first, an assay system capable of measuring the change in concentration of calcium ions in a cell in real-time was constructed, and then an evaluation was conducted by using the assay system. PAR-2 is a kind of G-protein coupled receptor (GPCR). When the PAR-2 is activated in the cell, phospholipase C-b (PLC-b) was activated to cleave phosphatidylinositol 4,5-bisphosphate (PIP2) into inositol triphosphate (IP3) and diacyl glycerol (DAG). The IP3 generated herein promotes secretion of calcium ions in an endoplasmic reticulum (ER), calcium ion reservoir in the cell, resulting in increasing calcium ions in the cell. An in vitro screening assay system capable of searching materials that may suppress the increase in concentration of calcium ions in the cell due to activation of PAR-2 was constructed based on the existing search results. As a PAR-2 activator used in the experiment, activating peptide (AP) was used. As a reagent for detecting the concentration of calcium ions in the cell, the Calcium-4 assay kit by Molecular Probe Company was used. HCT-15, a PAR-2-overexpressed cell line, was used as a cell line used in the experiment.
The PAR-2 inhibitory activity of the synthesized material was evaluated by using such the protocol, and the assay profile of Compound 98 synthesized in Example 1 was shown in FIG. 1.

[3] = test system: nude mice (SKH-1); assay: Recovery of acute skin barrier disruption (tape stripping); assay type: in vivo
Protocol: The recovery rate after acute skin barrier disruption was evaluated on a selected compound by using nude mice. Skins of both abdominal regions of each of 6-8 week aged nude mice (SKH-1) were subjected to repetitive tape stripping, so that transepidermal water loss reached a level of about 35˜40 g/m^2/hr, and then, respective samples were applied thereto. The transepidermal water loss was measured by using the TEWameter (Courage & Khazaka, Germany) immediately before and after skin barrier disruption and 3 hours and 6 hours after application, and the recovery rate of transepidermal water loss was calculated as follows.
(wherein, TEWLa is TEWL value immediately after barrier disruption, TEWLb is TEWL value at the baseline, and TEWLc is TEWL value at the indicated time.)

[4] = molecular target: T1, PAR-2; assay: Confocal microscopy of PAR-2 activation in KNRK-PAR-2 cell line; assay type: cell-based; parameters: expressed in transfected cells; host or cells: KNRK (Kirsten Murine Sarcoma Virus transformed rat kidney epithelial cells); conditions: [Compound 98]=200 μM, [trypsin]=1 μM, [SLIGKV]=100 μM, KNRK-PAR-2 cells
Protocol: In order to visually confirm activation of PAR-2, a cell line having the following structure was prepared referring to the existing reference documents, and activation of PAR-2 was observed by using a confocal microscopy. As a cell line, Kirsten Murine Sarcoma Virus transformed rat kidney epithelial cell (KNRK cell) was used, which is a cell line where, normally, PAR-2 is not expressed. In the KNRK cell, flag epitope was tagged to an N-terminal and Myc epitope was tagged to a C-terminal, so that a stable transfected cell was constructed. Flag and Myc of the thus prepared KNRK-PAR-2 cell line were subjected to double staining, and activation or non-activation of PAR-2 was observed by using the confocal microscopy ([trypsin]=1 μM, [SLIGKV(AP)]=100 μM). When the PAR-2 was not activated, Flag and Myc were double-stained and thus appears yellow in the merged image. However, when the PAR-2 was activated, Flag was separated away and thus a red image was shown.

[5] = molecular target: T1, PAR-2; assay: PathHunter β-arrestin GPCR assay; assay type: cell-based; parameters: expressed in transfected cells; host or cells: KNRK (Kirsten Murine Sarcoma Virus transformed rat kidney epithelial cells); conditions: β-arrestin accumulation
Protocol: An in vitro assay protocol capable of detecting activation of PAR-2 was additively introduced besides the calcium immobilization assay, and activity of the selected material was measured. First, the PAR-2 inhibitory activity of Compound 98 was measured by using the PathHunter™ β-arrestin GPCR assay kit by DiscoveRx Company, capable of detecting accumulation of β-arrestin, which is an intercellular reaction material primarily generated by activation of PAR-2. As the measurement results, an IC50 value slightly different from the Calcium immobilization assay was observed (Table 1).

- IC50 [2]: 243 µM
- Activation of PAR-2 (Flag/Myc double staining image) [4]: activation of PAR-2 was suppressed
- IC50 [5]: 95.3 µM
Substance: (2-methyl-1-m-tolyl-1H-benzo[d]imidazol-5-yl)(piperidin-1-yl)methanone [Compound 98]
- Recovery of transepidermal water loss ([1]; FIG. 4): promoted recovery
- Recovery of moisture content in the stratum corneum ([1]; FIG. 5): promoted recovery
- PCNA positive keratinocyte (PCNA staining) ([1]; FIG. 7): statically significant decrease
- Recovery rate of transepidermal water loss after acute skin barrier disruption ([3]; 1.0% applied to skin, 3 and 6 hours after application): rapid recovery
- Activity in promoting the recovery after skin barrier disruption ([3]; overall conclusion, FIG. 3): best activity in promoting the recovery after skin barrier disruption
